Results from paper PMC7582727, “Functional Impact of BeKm-1, a High-Affinity hERG Blocker, on Cardiomyocytes Derived from Human-Induced Pluripotent Stem Cells” (International Journal of Molecular Sciences, 2020).
“Also recorded” adds a separate entry of the source. Positions of bridges follow the written chain, without caps; N, C: chain ends. Residues, ends and D or L forms follow the SMILES beside them.

Legend:
[1] = test system: rabbit heart; design: method as in PMID 21205913; details: ref [8]; cited from earlier work
[2] = test system: hiPS-CMs monolayer; test: Electric field potential of hiPS-CM monolayers (CardioExcyte96); type: cell-based, human
From the text: The excitability abnormalities recorded on single hiPS-CM APs should translate into larger abnormalities when these cells are interacting with each other in monolayers. To assess this issue, we investigated the electrical excitability of hiPS-CM monolayers using the CardioExcyte96 system (Nanion). This system monitors both the electric field potential (EFP), which reflects the concerted electrical activity of the cell monolayer, and the impedance changes due to cell contractions, which will be described below. […] As saturating concentrations of BeKm-1 (100 nM) induced the arrest of spontaneous APs in individual cells, we were interested to see what may happen on a monolayer of hiPS-CMs.
hiPS-CMs: All experiments were performed on the human-induced pluripotent stem cell (hiPSC) clone C2a that has been previously characterized, including cardiac differentiation and electrophysiology data. Cells were expanded on stem cell-qualified matrigel-coated plates (0.05 mg/mL; BD Bioscience, Le Pont de Claix, France) and cultured in StemMACS iPS-BREW XF medium (Miltenyi Biotec, Paris, France). Cells were passaged every […] using Gentle Cell Dissociation Buffer (StemCell Technologies, Grenoble, France). Prior to differentiation, cells were cultured as a monolayer in StemMACS iPS-brew supplemented with 1 × Y-27632 Rho-associated, coiled-coil containing protein kinase (ROCK) inhibitor (StemCell Technologies, Grenoble, France). When hiPSCs reached proper confluence, they were differentiated into cardiomyocytes using previously described « Matrix sandwich » protocol. At day 20 ± 1 of differentiation, beating cardiomyocytes were manually dissected and isolated from non-beating cells. Briefly, cardiomyocytes were washed with phosphate-buffered saline (PBS) and treated with TrypLE Express (10x) (Thermo Fisher Scientific, Illkirch-Graffenstaden, France) for 5 min at 37 °C. The enzyme was inactivated by adding RPMI1640 medium containing 20% (vol/vol) KnockOut Serum Replacement (KSR) (Thermo Fisher Scientific, Illkirch-Graffenstaden, France). […]
The beating properties and the electrical field potentials of hiPS-CMs were evaluated with a CardioExcyte96 system. […] Meanwhile, cells were monitored to ensure the full stabilization of beating parameters until BeKm-1 was tested at various concentrations ([…]). Tfall and Trise were determined as the time between 10% and 90% of contraction or relaxation, respectively. Pulse width (PWx) was determined as the time corresponding to the width of the signal at 90% of relaxation. Electric field potentials (EFPs) were recorded using CardioExcyte96 system. For both contraction and EFPs, 10 sequences of 30 s of acquisition were analyzed before and after BeKm-1 addition. […]

[3] = test system: hiPS-CMs; test: Intracellular Ca^2+ transients in hiPS-CMs (Fluo-4, confocal); type: cell-based, human; details: 5 nM
Experimental: As Ca^2+ influx abnormalities are likely to be at the root of electrophysiological disorders observed in the presence of BeKm-1, we sought to investigate the effects of this compound on hiPS-CM calcium dynamics. In order to test this, intracellular Ca^2+ transients (CaT) were monitored by confocal microscopy using the Fluo4 Ca^2+-sensitive dye in presence of 5 nM BeKm-1. […] The average interval was raised from 3.3 ± 1.7 sec (n = 8, vehicle) to 4.9 ± 2.2 sec (n = 8, 5 nM BeKm-1) (Figure S4C). In addition, we observed a reduction of CaT amplitude from 1.8 ± 0.2 (n = 8, vehicle) to 0.8 ± 0.2 (n = 8, 5 nM BeKm-1) (Figure S4D). […] The altered shape of the CaT was due to a slower time to peak (1.1 ± 0.1 s with vehicle vs. 2.2 ± 0.4 s with 5 nM BeKm-1, n = 8) (Figure S4E), possibly indicating a slower release from internal stores associated to a reduced entry by VGCC (largely due to the impact of RMP depolarization).
hiPS-CMs: All experiments were performed on the human-induced pluripotent stem cell (hiPSC) clone C2a that has been previously characterized, including cardiac differentiation and electrophysiology data. Cells were expanded on stem cell-qualified matrigel-coated plates (0.05 mg/mL; BD Bioscience, Le Pont de Claix, France) and cultured in StemMACS iPS-BREW XF medium (Miltenyi Biotec, Paris, France). Cells were passaged every […] using Gentle Cell Dissociation Buffer (StemCell Technologies, Grenoble, France). Prior to differentiation, cells were cultured as a monolayer in StemMACS iPS-brew supplemented with 1 × Y-27632 Rho-associated, coiled-coil containing protein kinase (ROCK) inhibitor (StemCell Technologies, Grenoble, France). When hiPSCs reached proper confluence, they were differentiated into cardiomyocytes using previously described « Matrix sandwich » protocol. At day 20 ± 1 of differentiation, beating cardiomyocytes were manually dissected and isolated from non-beating cells. Briefly, cardiomyocytes were washed with phosphate-buffered saline (PBS) and treated with TrypLE Express (10x) (Thermo Fisher Scientific, Illkirch-Graffenstaden, France) for 5 min at 37 °C. The enzyme was inactivated by adding RPMI1640 medium containing 20% (vol/vol) KnockOut Serum Replacement (KSR) (Thermo Fisher Scientific, Illkirch-Graffenstaden, France). The supernatant was removed, and cells were suspended in RPMI1640 medium containing 20% (vol/vol) KSR and ROCK inhibitor. Then, the cells were plated on specific supports suitable for functional assessments.
Calcium transients of hiPS-CMs were evaluated using the Fluo-4 reported dye and a Nikon A1R confocal microscope. Dissociated hiPS-CMs were plated and maintained on µ-slide 8-well IBIDI plates for 12 ± 1 days prior to experiments. On the day of the experiments, cells were loaded for 20 min with 3 µM Fluo-4 AM Ca^2+ indicator (Thermo Fisher Scientific, Illkirch-Graffenstaden, France) in culture medium at 37 °C. Then, to allow complete de-esterification of the Ca^2+ probe, the medium was replaced and cells were re-incubated at 37 °C for another 20 min. All recordings were performed in Tyrode’s solution, cells being placed at 37 °C in an experimental chamber. Confocal microscopy was performed using a Nikon A1R confocal inverted microscope (Nikon Corp, Tokyo, Japan) with a Nikon X60 Plan-Apo numerical aperture 1.4 oil-immersion objective (MicroPICell core facility). Fluo-4 AM was excited using the 488 nm line from an argon laser and fluorescence emission was measured at >505 nm. Images were acquired between 15.5 and 56.4 frames/s in X-Y mode, with a resolution of 1024 × 1024 pixels ([…]).

Compound: CC[C@H](C)[C@H](NC(=O)[C@H](CC(=O)O)NC(=O)[C@@H](NC(=O)[C@@H]1CCCN1C(=O)[C@@H](N)CCCNC(=N)N)[C@@H](C)O)C(=O)N[C@@H](CCCCN)C(=O)N[C@H]1CSSC[C@@H]2NC(=O)[C@H](CCCNC(=N)N)NC(=O)CNC(=O)[C@H](CC(N)=O)NC(=O)[C@H]([C@@H](C)O)NC(=O)[C@H](CCCCN)NC(=O)CNC(=O)[C@H](Cc3ccccc3)NC(=O)[C@H](CCCNC(=N)N)NC(=O)[C@H](CO)NC(=O)[C@H](CCCCN)NC(=O)[C@@H]3CSSC[C@@H](C(=O)N[C@@H](Cc4ccccc4)C(=O)O)NC(=O)[C@H](CC(=O)O)NC(=O)[C@H](CSSC[C@H](NC(=O)[C@H](CCC(N)=O)NC(=O)[C@H](Cc4ccc(O)cc4)NC(=O)[C@H](CO)NC(=O)[C@H](CCC(=O)O)NC(=O)[C@H](CO)NC1=O)C(=O)N[C@@H](Cc1ccccc1)C(=O)N1CCC[C@H]1C(=O)N[C@@H](C(C)C)C(=O)N3)NC(=O)[C@H](Cc1ccccc1)NC(=O)CNC(=O)[C@H](CC(N)=O)NC(=O)[C@H](C(C)C)NC2=O [BeKm-1] (H-RPTDIKCSESYQCFPVCKSRFGKTNGRCVNGFCDCF-OH; disulfide 7-28, 13-33, 17-35 (inferred); N-terminus and C-terminus assumed)
- QT interval in ECG [1]: prolongs the QT interval
- EFP duration ([2]; 2 nM, 37 °C, vehicle 2.8 ± 0.1 s, n = 5, mean ± SEM): 3.4 ± 0.2 s
- spontaneous depolarization in EFP ([2]; 2 nM, Figure 4A): presence of spontaneous depolarization
- EFP arrhythmic waveforms ([2]; 100 nM): sustained waveforms of tachyarrhythmia, and TdP-like polymorphic waveforms; also recorded: increase in beats frequency and fibrillation-like pattern
- EFP frequency ([2]; 100 nM, 37 °C, vehicle 0.2 ± 0.1 Hz, n = 5, mean ± SEM, significant): 0.7 ± 0.1 Hz
- average interval between CaT ([3]; 37 °C, vehicle 3.3 ± 1.7 sec, n = 8, mean ± SEM): 4.9 ± 2.2 s
- CaT amplitude ([3]; F/F0 (Figure S4D), vehicle 1.8 ± 0.2, n = 8, mean ± SEM): 0.8 ± 0.2
- cytoplasmic Ca^2+ handling (integration of Ca^2+ signals) ([3]; Figure S4G): non-significant decrease
- variability of CaT intervals ([3]; Poincaré plot, Figure S4B): great variability
- kinetics of the CaT decay phase ([3]; tau of decay, Figure S4F): no alterations
- CaT time to peak ([3]; vehicle 1.1 ± 0.1 s, n = 8, mean ± SEM): 2.2 ± 0.4 s
